Active and inactive are the calls of the source.
Legend:
[1] = target: T1, Mucolipin-3 (Homo sapiens, UniProt Q8TDD5); assay: TRPML3 agonist potency, dose response, cell-based, calcium fluorescence (AID 2510); type: functional
T1 sequence (Q8TDD5 whole entry): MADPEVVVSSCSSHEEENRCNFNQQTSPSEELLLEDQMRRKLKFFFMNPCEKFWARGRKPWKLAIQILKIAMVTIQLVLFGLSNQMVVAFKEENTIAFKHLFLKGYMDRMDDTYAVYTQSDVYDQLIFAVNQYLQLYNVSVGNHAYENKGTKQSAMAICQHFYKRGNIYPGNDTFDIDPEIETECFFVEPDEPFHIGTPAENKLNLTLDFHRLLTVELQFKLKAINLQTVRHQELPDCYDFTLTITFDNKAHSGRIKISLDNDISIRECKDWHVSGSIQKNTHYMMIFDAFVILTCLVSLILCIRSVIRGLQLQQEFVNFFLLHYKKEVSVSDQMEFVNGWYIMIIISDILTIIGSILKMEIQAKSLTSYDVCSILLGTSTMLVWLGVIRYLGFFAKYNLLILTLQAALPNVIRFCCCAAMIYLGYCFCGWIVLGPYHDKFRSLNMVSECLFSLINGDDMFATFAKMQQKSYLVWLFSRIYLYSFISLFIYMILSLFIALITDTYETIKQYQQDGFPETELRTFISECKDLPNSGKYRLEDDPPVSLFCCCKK

[2] = target: T1, Mucolipin-3; assay: Dose response cell-based high-throughput screening assay for agonists of the transient receptor potential channel ML3 (TRPML3). [Related pubchem assays: 1526, 1424, 1448 ]; type: functional
[3] = target: T2, Ion channel NompC (Danio rerio, UniProt Q7T1G6); assay: Late stage counterscreen for the probe development effort to identify selective agonists of the Transient Receptor Potential Channels 3 (TRPML3): fluorescence-based cell-based dose response assay for TRPN1 agonists.; type: functional
T2 sequence (Q7T1G6 whole entry): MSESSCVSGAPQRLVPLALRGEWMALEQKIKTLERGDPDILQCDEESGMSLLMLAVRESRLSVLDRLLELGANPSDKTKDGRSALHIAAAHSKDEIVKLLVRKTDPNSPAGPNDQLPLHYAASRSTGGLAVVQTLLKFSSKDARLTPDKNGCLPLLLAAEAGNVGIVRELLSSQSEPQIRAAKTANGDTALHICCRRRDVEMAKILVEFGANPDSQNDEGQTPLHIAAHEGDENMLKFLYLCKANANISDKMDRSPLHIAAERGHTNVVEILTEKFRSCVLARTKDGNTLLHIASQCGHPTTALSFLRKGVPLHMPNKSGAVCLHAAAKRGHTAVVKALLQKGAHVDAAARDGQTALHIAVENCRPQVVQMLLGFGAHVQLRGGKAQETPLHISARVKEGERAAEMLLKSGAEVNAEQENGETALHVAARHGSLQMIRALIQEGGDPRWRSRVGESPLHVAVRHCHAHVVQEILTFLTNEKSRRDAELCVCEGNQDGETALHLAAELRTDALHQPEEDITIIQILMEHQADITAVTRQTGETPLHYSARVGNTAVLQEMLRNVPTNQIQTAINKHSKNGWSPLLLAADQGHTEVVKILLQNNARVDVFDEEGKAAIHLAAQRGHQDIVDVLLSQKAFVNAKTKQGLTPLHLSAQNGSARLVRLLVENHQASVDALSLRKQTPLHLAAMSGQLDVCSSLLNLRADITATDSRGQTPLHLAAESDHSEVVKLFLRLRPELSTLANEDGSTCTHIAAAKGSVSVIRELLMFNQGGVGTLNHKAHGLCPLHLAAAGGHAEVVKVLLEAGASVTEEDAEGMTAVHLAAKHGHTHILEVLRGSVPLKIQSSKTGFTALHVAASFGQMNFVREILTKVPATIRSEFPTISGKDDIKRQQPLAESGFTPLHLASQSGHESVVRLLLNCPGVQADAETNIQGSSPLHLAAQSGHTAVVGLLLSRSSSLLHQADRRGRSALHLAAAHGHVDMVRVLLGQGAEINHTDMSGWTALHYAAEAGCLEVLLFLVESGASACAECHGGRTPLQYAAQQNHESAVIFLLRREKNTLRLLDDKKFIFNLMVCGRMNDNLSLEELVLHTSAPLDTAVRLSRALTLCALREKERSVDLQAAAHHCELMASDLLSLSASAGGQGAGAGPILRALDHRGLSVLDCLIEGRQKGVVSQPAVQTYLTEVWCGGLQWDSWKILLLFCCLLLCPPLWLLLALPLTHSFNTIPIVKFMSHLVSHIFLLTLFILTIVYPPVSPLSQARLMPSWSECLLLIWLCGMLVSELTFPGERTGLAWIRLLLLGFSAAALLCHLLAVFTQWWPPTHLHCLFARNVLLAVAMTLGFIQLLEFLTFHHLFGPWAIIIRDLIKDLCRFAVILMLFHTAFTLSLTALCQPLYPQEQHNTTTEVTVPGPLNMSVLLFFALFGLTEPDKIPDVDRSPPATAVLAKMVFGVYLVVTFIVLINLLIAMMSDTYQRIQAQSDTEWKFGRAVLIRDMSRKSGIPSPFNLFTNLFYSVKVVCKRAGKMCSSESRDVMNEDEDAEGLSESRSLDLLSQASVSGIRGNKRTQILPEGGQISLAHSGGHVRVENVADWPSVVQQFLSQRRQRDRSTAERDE

[4] = target: T2, Ion channel NompC; assay: Fluorescence counterscreen assay for TRPML3 agonists: dose response cell-based high-throughput screening assay to identify agonists of the transient receptor potential channel N1 (TRPN1). [Related pubchem assays: 1526, 1424, 1448 ]; type: functional
[5] = target: T3, Leucine aminopeptidase (Plasmodium falciparum 3D7, UniProt Q8IL11); assay: P. falciparum M17LAP inhibitors, primary screen, biochemical, fluorogenic H-Leu-NHMec substrate, 1536-well (AID 1619); type: functional
T3 sequence (Q8IL11 whole entry): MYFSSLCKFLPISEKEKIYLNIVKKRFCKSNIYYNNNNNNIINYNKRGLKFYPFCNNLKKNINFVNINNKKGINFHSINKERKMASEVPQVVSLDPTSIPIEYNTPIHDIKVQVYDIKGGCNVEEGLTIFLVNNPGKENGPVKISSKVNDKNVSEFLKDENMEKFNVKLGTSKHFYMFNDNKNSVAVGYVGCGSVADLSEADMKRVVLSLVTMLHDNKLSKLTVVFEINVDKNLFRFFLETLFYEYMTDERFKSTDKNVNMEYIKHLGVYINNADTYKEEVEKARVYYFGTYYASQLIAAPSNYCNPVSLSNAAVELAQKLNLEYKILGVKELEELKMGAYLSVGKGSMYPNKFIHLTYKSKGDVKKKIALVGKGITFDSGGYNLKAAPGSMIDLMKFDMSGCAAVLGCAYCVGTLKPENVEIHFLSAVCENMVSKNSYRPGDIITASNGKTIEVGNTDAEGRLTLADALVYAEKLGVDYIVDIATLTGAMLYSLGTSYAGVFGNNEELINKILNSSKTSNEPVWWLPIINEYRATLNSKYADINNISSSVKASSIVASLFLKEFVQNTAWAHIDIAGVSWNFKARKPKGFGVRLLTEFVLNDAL

[6] = human group III sPLA2 inhibitors, dose response, biochemical, QFRET, IC50 (AID 743457);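 note: green fluorescence rise as the enzyme cleaves BODIPY PC-A2 in liposomes; potency for inhibition of the enzyme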
[7] = target: Nonstructural protein 1 (Influenza A virus, UniProt Q194T2); type: functional, Influenza A virus (A/California/07/2009(H1N1))
Nonstructural protein 1, sequence (Q194T2 whole entry): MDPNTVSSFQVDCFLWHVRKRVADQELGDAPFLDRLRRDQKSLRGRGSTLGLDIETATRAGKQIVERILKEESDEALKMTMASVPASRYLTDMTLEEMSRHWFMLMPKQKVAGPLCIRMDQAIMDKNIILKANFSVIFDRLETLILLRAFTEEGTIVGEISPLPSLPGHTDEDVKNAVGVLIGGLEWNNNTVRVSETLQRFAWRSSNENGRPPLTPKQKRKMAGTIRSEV

[8] = target: T4, Zinc finger protein mex-5 (Caenorhabditis elegans, UniProt Q9XUB2); assay: MEX-5/TCR-2 RNA interaction inhibitors, dose response, biochemical, C. elegans, fluorescence polarization (AID 1960)
T4 sequence (Q9XUB2 whole entry): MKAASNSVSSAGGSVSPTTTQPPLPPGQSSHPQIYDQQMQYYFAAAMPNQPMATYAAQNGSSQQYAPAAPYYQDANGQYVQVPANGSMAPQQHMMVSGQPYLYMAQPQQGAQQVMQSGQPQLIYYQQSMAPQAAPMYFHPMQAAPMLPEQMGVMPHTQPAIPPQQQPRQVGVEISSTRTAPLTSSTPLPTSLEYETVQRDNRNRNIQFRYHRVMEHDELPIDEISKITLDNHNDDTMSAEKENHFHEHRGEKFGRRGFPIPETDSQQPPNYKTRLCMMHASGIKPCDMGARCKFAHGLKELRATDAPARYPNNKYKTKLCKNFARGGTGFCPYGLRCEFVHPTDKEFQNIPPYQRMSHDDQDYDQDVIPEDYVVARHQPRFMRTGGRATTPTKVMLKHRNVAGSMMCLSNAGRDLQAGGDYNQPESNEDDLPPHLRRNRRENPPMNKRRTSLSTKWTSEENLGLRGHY

[9] = Escherichia coli growth inhibition, dose response, counter-screen for MEX-5/POS-1 RNA-binding inhibitor project, luminescence, NEB5alpha (AID 1959); type: functional
[10] = target: T5, RNA-binding protein pos-1 (Caenorhabditis elegans, UniProt G5EF15); assay: inhibitors of POS-1/mex-3 RNA binding, dose response, biochemical, fluorescence polarization (AID 1964);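 note: purified POS-1 fused to maltose binding protein made in E. coli; potency of compounds blocking POS-1 binding to fluorescent RNA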
T5 sequence (G5EF15 whole entry): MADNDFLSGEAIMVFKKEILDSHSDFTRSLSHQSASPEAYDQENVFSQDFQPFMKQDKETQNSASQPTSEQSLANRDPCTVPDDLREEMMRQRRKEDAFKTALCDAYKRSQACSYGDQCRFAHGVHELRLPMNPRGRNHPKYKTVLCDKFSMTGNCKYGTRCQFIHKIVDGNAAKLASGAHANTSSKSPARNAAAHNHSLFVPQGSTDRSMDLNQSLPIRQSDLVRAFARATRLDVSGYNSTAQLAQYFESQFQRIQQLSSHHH

[11] = HeLa cell cytotoxicity, dose response, cytotoxicity control for MgcRacGAP inhibitor project (AID 624300); type: functional
[12] = target: T6, Rac GTPase-activating protein 1 (Homo sapiens, UniProt Q9H0H5); assay: MgcRacGAP GTPase-activating activity inhibitors, confirmation, biochemical, ADP Hunter fluorescence, primary and confirmatory (AID 624330); type: functional
T6 sequence (Q9H0H5 whole entry): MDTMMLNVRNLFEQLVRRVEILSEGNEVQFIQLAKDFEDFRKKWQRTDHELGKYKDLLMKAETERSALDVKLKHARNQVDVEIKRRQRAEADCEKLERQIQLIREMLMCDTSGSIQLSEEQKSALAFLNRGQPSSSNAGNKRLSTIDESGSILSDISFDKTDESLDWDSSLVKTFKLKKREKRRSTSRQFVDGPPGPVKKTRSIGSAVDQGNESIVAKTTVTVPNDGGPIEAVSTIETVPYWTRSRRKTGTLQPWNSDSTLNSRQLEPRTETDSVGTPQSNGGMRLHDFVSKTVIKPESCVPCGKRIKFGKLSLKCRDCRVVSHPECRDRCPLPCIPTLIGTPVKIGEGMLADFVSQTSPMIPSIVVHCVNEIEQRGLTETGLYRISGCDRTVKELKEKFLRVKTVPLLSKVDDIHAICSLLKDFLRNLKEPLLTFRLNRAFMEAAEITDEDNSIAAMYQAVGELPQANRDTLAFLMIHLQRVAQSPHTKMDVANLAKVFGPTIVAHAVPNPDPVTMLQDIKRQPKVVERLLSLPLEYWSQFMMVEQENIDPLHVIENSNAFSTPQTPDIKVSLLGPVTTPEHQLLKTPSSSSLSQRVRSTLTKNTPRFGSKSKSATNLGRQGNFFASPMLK

[13] = tested on: Streptococcus sp. 'group A'; assay: growth inhibition of control SK(-) GAS strain, dose response, counter-screen for streptokinase expression inhibitor project, luminescence, kanamycin, BacTiterGlo, confirmation (AID 1900); type: functional, organism-based
[14] = target: Voltage-gated inwardly rectifying potassium channel KCNH2 (Homo sapiens, UniProt Q12809); assay: hERG protection from proarrhythmic block, potency, dose response, cell-based, thallium flux (AID 2121); type: ADME
Voltage-gated inwardly rectifying potassium channel KCNH2, sequence (Q12809 whole entry): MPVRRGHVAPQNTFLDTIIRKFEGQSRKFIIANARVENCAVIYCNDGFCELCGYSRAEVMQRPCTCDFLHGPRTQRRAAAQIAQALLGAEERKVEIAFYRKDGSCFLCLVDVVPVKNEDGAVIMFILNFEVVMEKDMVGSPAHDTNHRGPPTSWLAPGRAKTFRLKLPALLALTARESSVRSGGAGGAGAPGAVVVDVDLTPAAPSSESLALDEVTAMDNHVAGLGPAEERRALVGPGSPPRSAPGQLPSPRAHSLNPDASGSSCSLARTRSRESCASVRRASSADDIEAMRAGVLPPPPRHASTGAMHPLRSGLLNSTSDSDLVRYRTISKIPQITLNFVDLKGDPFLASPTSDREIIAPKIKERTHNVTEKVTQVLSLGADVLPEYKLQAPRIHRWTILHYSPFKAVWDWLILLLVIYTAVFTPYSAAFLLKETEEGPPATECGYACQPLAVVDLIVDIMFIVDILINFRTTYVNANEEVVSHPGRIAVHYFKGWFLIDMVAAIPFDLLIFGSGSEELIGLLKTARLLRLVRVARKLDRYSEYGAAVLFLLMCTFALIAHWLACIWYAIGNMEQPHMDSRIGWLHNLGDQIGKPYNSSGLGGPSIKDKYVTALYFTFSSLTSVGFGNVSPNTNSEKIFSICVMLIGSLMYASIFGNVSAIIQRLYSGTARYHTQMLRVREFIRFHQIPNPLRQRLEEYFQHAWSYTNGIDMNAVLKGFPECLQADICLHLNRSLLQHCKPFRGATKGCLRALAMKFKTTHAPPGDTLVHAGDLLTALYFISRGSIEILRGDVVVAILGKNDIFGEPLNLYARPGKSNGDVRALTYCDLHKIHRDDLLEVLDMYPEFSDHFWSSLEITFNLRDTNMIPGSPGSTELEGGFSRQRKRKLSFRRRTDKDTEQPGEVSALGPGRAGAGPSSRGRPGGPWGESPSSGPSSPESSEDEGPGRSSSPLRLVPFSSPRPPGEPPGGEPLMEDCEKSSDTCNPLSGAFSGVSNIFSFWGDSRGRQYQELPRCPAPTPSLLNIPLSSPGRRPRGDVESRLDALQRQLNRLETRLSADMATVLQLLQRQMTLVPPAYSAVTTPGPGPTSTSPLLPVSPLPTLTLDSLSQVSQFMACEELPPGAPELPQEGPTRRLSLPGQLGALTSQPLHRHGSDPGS

[15] = tested on: Streptococcus; assay: Group A Streptococcus viability loss, dose response, counter-screen for streptokinase expression inhibitor project, luminescence, BacTiterGlo (AID 1915); type: functional, organism-based;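 note: potency for reduction of bacterial viability or growth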
[16] = target: T7, Bcl-2-related protein A1 (Mus musculus, UniProt Q07440); assay: Bfl-1 binding inhibitors, SAR follow-up, biochemical, fluorescence polarization (AID 1070)
T7 sequence (Q07440 whole entry): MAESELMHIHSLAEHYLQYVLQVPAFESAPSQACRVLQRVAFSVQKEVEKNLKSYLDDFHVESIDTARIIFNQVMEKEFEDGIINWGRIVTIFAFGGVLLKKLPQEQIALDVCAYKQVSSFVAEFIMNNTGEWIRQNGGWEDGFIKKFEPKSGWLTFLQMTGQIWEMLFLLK

[17] = target: T8, Protein skinhead-1 (Caenorhabditis elegans, UniProt P34707); type: functional
T8 sequence (P34707 whole entry): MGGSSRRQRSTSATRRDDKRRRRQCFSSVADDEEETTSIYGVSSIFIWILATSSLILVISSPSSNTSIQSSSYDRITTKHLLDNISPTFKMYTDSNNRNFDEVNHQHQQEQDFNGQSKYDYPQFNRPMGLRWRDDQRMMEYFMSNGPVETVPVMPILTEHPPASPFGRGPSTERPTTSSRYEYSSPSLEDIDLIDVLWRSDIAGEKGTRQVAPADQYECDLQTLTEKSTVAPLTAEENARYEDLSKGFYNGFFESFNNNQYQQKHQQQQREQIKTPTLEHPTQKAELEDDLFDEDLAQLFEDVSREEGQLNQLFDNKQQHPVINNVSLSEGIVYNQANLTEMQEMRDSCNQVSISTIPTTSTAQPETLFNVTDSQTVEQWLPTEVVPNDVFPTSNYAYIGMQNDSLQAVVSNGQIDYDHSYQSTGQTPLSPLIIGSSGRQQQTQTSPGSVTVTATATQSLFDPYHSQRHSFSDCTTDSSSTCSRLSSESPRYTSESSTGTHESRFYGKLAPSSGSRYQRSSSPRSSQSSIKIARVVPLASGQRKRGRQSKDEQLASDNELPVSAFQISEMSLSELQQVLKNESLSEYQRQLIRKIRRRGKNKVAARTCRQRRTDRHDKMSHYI

[18] = target: T7, Bcl-2-related protein A1; assay: Bfl-1 inhibitors blocking BH3 peptide binding, confirmation, biochemical, TR-FRET, mouse Bfl-1 (AID 621);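 note: TR-FRET binding of GST-Bfl-1 to FITC-labelled Bid peptide via terbium antibody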
[19] = HepG2 cell cytotoxicity, dose response, cytotoxicity control for non-replicating M. tuberculosis project (AID 489018); type: functional; details: Mycobacterium tuberculosis
[20] = cells; type: functional
[21] = Luminescent dose response cell-based high throughput screening assay for inhibitors of the Janus kinase 2 mutant JAK2V617F. [Related pubchem assays: 1446 (Primary screen.), 1521 (Confirmation assay.), 1486 (Counter screen.)]; type: functional
[22] = target: Paired box protein Pax-8 (Homo sapiens, UniProt Q06710); assay: inhibitors of PAX8-driven TPO luciferase reporter, dose response, RMG-I cells, cherry-pick (AID 687027); type: functional, cell-based;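 note: luciferase reporter driven by Pax8 target thyroperoxidase promoter measured by SteadyGlo luminescence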
Paired box protein Pax-8, sequence (Q06710 whole entry): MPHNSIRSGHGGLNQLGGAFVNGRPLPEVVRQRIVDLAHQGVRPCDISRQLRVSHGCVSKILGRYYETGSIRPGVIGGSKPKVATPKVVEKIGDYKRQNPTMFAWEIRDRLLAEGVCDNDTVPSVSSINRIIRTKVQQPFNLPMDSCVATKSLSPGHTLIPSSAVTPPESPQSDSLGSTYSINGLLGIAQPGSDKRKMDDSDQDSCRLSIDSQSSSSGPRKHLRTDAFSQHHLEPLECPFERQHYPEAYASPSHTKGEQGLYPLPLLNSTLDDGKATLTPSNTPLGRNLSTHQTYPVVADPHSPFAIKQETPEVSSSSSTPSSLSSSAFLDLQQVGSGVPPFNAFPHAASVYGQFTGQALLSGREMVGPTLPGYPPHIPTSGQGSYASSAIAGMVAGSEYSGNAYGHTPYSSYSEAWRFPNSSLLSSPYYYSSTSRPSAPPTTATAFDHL

[23] = Vero E6 cell cytotoxicity, dose response, cytotoxicity control for non-replicating M. tuberculosis project, secondary assay (AID 492998); type: functional, VeroE6; details: Vero C1008
[24] = THP-1 cell cytotoxicity, dose response, cytotoxicity control for non-replicating M. tuberculosis project (AID 489025); type: functional

## CCOc1ccc(S(=O)(=O)N2CCCCCC2)c2ccccc12
[1]
  EC50: 950 nM (active)
[2]
  EC50: 1.03 µM (active)
[3]
  EC50: > 29.9 µM (not active)
[4]
  EC50: > 29.9 µM (not active)

## CC[n+]1c(/C=C/c2ccc(N(C)C)cc2)ccc2ccccc21
[5]
  IC50: 110 µM (active)
[6]
  IC50: 34 µM (inactive)
[7]
  IC50: 18.9 µM (active)
[8]
  EC50: > 300 µM (not active)
[9]
  EC50: 37.8 µM (active)
[10]
  EC50: > 300 µM (not active)
[11]
  CC50: 39.7 µM (active)
[12]
  IC50: 46.6 µM (active)

## CCOc1ccc2nc(N3C(=O)/C(=C/c4ccc(Cl)cc4)NC3=S)sc2c1
[13]
  EC50: 1.8 µM (active)
[14]
  EC50: 1.24 µM (active)
[15]
  EC50: 855 nM (active)

## Fc1ccc(-n2nnc(-c3cccnc3)n2)cc1
[16]
  IC50: > 100 µM (not active)
[17]
  IC50: 17.4 µM (active)
[18]
  IC50: > 100 µM (not active)

## CCOc1ccc(C(=O)C(CN2CCOCC2)c2ccccc2)cc1 (centres undefined)
[19]
  CC50: 16.1 µM (active)
[20]
  IC50: 10.3 µM (active)
[21]
  IC50: 730 nM (active)
[22]
  AC50: 1.96 µM (active)
[23]
  CC50: 8.04 µM (active)
[24]
  CC50: 5.48 µM (active)

Source: ChEMBL document CHEMBL1201862, “PubChem BioAssay data set” (2004)
